Data set [1] in a line: Inhibition of MERS 3CL protease expressed in Escherichia coli BL21(DE3) cells using DABCYL-KTSAVLQSGFRKM-EDANS as substrate preincubated for 30 mins followed by substrate addition and measured after 30 mins by FRET assay. On the set-up: species or system Middle East respiratory syndrome-related coronavirus.
Data set [2] relates to Middle East respiratory syndrome-related coronavirus. The data set can be described thus: microbe, parasite or virus in culture. The settings on record: Vero C1008, 96 h.
Data set [3] relates to Human coronavirus 229E. The data set can be described thus: microbe, parasite or virus in culture. As to conditions: BEAS-2B.
Data set [4] relates to BEAS-2B. Kind of data set: Cytotoxicity against human BEAS-2B cells assessed as reduction in cell viability. The data set is classed as toxicity, cell-based.
Data set [5] concerns the target T1, Replicase polyprotein 1ab (Severe acute respiratory syndrome coronavirus 2, UniProt P0DTD1). Kind of data set: Inhibition of SARS-CoV-2 3CL protease expressed in Escherichia coli BL21(DE3) cells using DABCYL-KTSAVLQSGFRKM-EDANS as substrate preincubated for 30 mins followed by substrate addition and measured after 15 mins by FRET assay.
Data set [6] relates to SARS-CoV-2. Kind of data set: microbe, parasite or virus in culture. As to conditions: Severe acute respiratory syndrome coronavirus 2, […], Vero C1008.
Data set [7] relates to SARS-CoV-2. Kind of data set: microbe, parasite or virus in culture. The settings on record: Severe acute respiratory syndrome coronavirus 2, […], Vero C1008, 72 h.
Data set [8] has as its target T1, Replicase polyprotein 1ab. The data set can be described thus: Covalent binding affinity to SARS-CoV-2 3CL protease expressed in Escherichia coli BL21(DE3) cells after 30 mins by FRET assay.
Data set [9] concerns the target Replicase polyprotein 1ab (Severe acute respiratory syndrome coronavirus 2) (UniProt P0DTD1). The settings on record: dose 40.0 µM, time 30.0 min.
Data set [10] has as its system SARS-CoV-2. As to conditions: Severe acute respiratory syndrome coronavirus 2, […], Calu-3, 48 h.
A short description of data set [11]: Selectivity index, ratio of CC50 for human BEAS2B cells to EC50 for antiviral activity against HCoV229E infected in BEAS-2B cells. Type of data set: toxicity, cell-based. As to conditions: read-out: Ratio CC50/EC50.

Regarding `CC(C)[C@H](NC(=O)OC(C)(C)C)C(=O)N1CCC[C@H]1C(=O)N[C@H](C=O)C[C@@H]1CCNC1=O`, the IC50 in data set [1] was 0.02 nM; in data set [5] it was 0.00623 µM. Further, the half-maximal effective concentration (EC50) in data set [2] was 4.56 µM; in data set [3] it was more than 17.9 µM; in data set [6], 22.5 µM; in data set [7], 16 µM. Also, in data set [4], the CC50 turned out to be 17.9 µM.

For `C[C@H](OC(C)(C)C)[C@H](NC(=O)OC(C)(C)C)C(=O)N1CCC[C@H]1C(=O)N[C@H](C=O)C[C@@H]1CCNC1=O`, the 50% inhibitory concentration (IC50) came to 0.022 nM in data set [1] and 0.0053 µM in data set [5]. The EC50 came out at 22.9 µM in data set [6] and 1.86 µM in data set [7].

For `CC(C)[C@H](NC(=O)OC(C)(C)C)C(=O)N1C[C@H](OC(C)(C)C)C[C@H]1C(=O)N[C@H](C=O)C[C@@H]1CCNC1=O`, the IC50 amounted to 26 nM in data set [1] and 0.0025 µM in data set [5]. In addition, the EC50 in data set [2] was 33.6 µM; in [3], more than 48.2 µM; in data set [6] it was 33.4 µM; in data set [7], 3.4 µM. The CC50 in data set [4] amounted to 48.2 µM.

Take `CC(C)[C@H](NC(=O)OC(C)(C)C)C(=O)N1C[C@@H]2CCC[C@@H]2[C@H]1C(=O)N[C@H](C=O)C[C@@H]1CCNC1=O`: the IC50 was determined as 143 nM in data set [1] and 0.005 µM in data set [5]. This compound also showed a Ki in data set [8] of 0.0032 µM. The ΔTm in data set [9] worked out at 4 °C. Further, the EC50 in [3] was determined as 0.24 µM; in [10], 0.449 µM; in data set [6] it was 5.3 µM; in [7], 0.21 µM. In addition, in [4], the CC50 came out at 28.4 µM.

For the compound `CC(C)C[C@H](NC(=O)OCc1ccccc1)C(=O)N[C@@H](C[C@@H]1CCNC1=O)C(O)S(=O)(=O)O` (stereo not given in full), the CC50 in data set [4] was more than 100 µM.

On to `CC(C)C[C@H](NC(=O)[C@@H](NC(=O)OC(C)(C)C)C(C)C)C(=O)N[C@H](C=O)C[C@@H]1CCNC1=O`, for which the IC50 in data set [1] was 0.02 nM; in data set [5], 0.0007 µM. Also, the EC50 amounted to 1.58 µM in data set [2], 2.3 µM in [3], 40.1 µM in data set [6] and 3.6 µM in data set [7]. For the same compound, the half-maximal cytotoxic concentration (CC50) in [4] worked out at 70.5 µM. The selectivity ratio in data set [11] is more than 30.1.

In the case of `CO[C@H]1C[C@@H](C(=O)N[C@H](C=O)C[C@@H]2CCNC2=O)N(C(=O)[C@@H](NC(=O)OC(C)(C)C)C(C)C)C1`, the IC50 in [1] was 0.007 nM; in data set [5], 0.00024 µM. Also, the EC50 in data set [2] was 0.58 µM; in data set [3], more than 3.6 µM; in [6], 23.6 µM; in data set [7], 8.7 µM. For the same compound, in data set [4], the CC50 amounted to 3.6 µM.

As to `CC(C)[C@H](NC(=O)OC(C)(C)C)C(=O)N1C[C@@H](C)C[C@H]1C(=O)N[C@H](C=O)C[C@@H]1CCNC1=O`, the half-maximal inhibitory concentration (IC50) in data set [1] came out at 2.33 nM; in data set [5], 0.00047 µM. Further, the EC50 was 47.2 µM in [6] and 16.9 µM in data set [7].

Take `CC(C)[C@H](NC(=O)OC(C)(C)C)C(=O)N1CCCC[C@H]1C(=O)N[C@H](C=O)C[C@@H]1CCNC1=O`: the 50% inhibitory concentration (IC50) in [5] was 3.35 µM. The concentration for a half-maximal effect (EC50) was more than 100 µM in data set [6] and 5.83 µM in data set [7].

As usually defined, the IC50 is the midpoint of a concentration-inhibition curve. Low readings indicate higher potency, high ones lower potency. A word on the EC50: it is the concentration needed to bring the measured effect to its halfway point. A lower EC50 goes with an effect from little substance. For orientation: CC50 means the concentration giving 50% cytotoxicity. The term ΔTm denotes the change in melting temperature against a reference sample.

The values are drawn from ChEMBL document CHEMBL5360575, “Broad-spectrum coronavirus 3C-like protease peptidomimetic inhibitors effectively block SARS-CoV-2 replication in cells: Design, synthesis, biological evaluation, and X-ray structure determination” (Eur J Med Chem, 2023).
